Laboratory results taken from US20190240297A1, “TREATMENT OF INFLAMMATORY BOWEL DISEASE” (UNIVERSITÉ LAVAL, priority 2016, published 2019).
Blank lines part the entries; values can stand above or below the compound they belong to.

Experiments:
DSS-induced colitis [1] = experiment: In vivo intestinal permeability assay (FITC-dextran flux from intestine to plasma) in DSS-treated mice; parameters: species or system mouse
Procedure: (§1) For intrarectal injection mice were anesthetized and stool that may be present in distal colon was removed with pressure by fingertips to the posterior end of the animal. A 5F infant feeding tube catheter was inserted 4 cm (measured from the midway point between the 2 catheter side ports) into the colon. At this point, 100 μL of P2Y6 antagonist (MRS 2578 CAS number 711019-86-2, 10 μM), apyrase (4 Units/mice) or their vehicles DMSO or PBS respectively was administered slowly. Following the injection of the solution, animals were positioned head-down for 90 sec to avoid loss of the injected solution. Mice were euthanized 8 hr after the last intrarectal injection, tissue and plasma were isolated for experimental outcomes.
Intestinal permeability was assessed with fluorescein-labeled dextran (FITC-dextran) as described previously with some modification (Ashleigh Hansen, 2013). All mice were administrated by oral gavage with FITC-dextran (60 mg/[…] of mouse) 4 h after the intrarectal injection of MRS 2578, apyrase or vehicle (DMSO or PBS). Another 4 hours later, mice were euthanized and whole blood was obtained by cardiac puncture. Plasma was isolated and the movement of FITC-flux from colonic lumen into the plasma was measured by fluorometry at 488 nm. Data are expressed as total quantity of dextran-FITC in 100 μl of plasma.

DSS-induced colitis [2] = experiment: DSS-induced acute colitis, disease activity index (DAI) after intrarectal injection; type: in vivo, mouse
Procedure: as §1, with “All mice were treated or not (control mice) with 3% (w/v) DSS (molecular weight: 42 kDa) added to the drinking water for 7 days. Disease activity index (DAI) was evaluated daily by scoring percent of weight loss, intestinal bleeding (no blood, presence of blood), and stool consistency (normal stool, loose stool, or diarrhea) as previously described (Berberat P, 2005). For” for “For”

P2Y6 receptor [3] = molecular target: T1, P2Y6 receptor (Mus musculus, UniProt Q9ERK9); experiment: UDP stimulation of murine differentiated IEC, KC expression by qPCR; type: cell-based; settings: 100 μM for 5 hours (FIG. 13A)
T1 construct: endogenous in cells; host or cells: primary differentiated intestinal epithelial cells from colon crypts of WT and Entpd8-/- mice
T1 sequence (Q9ERK9 whole entry): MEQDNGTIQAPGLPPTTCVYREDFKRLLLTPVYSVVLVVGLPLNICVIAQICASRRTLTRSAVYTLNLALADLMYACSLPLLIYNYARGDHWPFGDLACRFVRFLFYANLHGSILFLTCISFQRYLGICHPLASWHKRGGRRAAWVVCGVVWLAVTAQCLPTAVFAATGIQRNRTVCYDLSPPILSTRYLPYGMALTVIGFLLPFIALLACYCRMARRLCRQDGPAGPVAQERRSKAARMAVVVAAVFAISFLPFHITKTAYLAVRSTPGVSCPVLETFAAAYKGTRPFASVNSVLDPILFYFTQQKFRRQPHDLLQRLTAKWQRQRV
Text: (§2) Human colon pieces were recuperated and washed several times with D-PBS containing Fetal Bovine Serum (FBS), antibiotics, antifungal and gentamycin until the solution is clear. Epithelial unit containing stem cells (crypts) were isolated from human samples (as prepared above) or from the intestine of 10-12 weeks old mice by dissection and dissociated with collagenase type I (collagenase XI, DTT and dispase for human). Briefly, the longitudinal muscle layer from the colons were excised, washed with ice-cold Mg^2+ and Ca^2+ free Salt Solution (PBS) and then digested with 75 U/mL collagenase type I or collagenase XI. The digestion was stopped with Dulbecco's Modified Eagles Medium (DMEM/F12) containing 10% v/v foetal bovine serum (FBS). L-glutamine, Hepes. N-2 supplement, B-27 supplement and antibiotics. The digestion mixture was filtered with 70 μm filter and the effluent was centrifuged twice at 50×g for 5 min at 4° C. […]
(§3) Murine and human differentiated IEC were grown on plates and stimulated with UDP (100 μM) for 5 hours then the expression of KC (for mouse) and CXCL8 (for human) were evaluated by qPCR.
(§4) Genomic DNA was extracted from the tail of WT and Entpd8^−/− mice using Direct PCR Lysis Reagent to perform PCR using specific primers for NTPDase8 gene and neomycin as mentioned above. […] Primer sequences for cytokine analysed were purchased from Qiagen.

P2Y6 receptor [4] = molecular target: T2, P2Y6 receptor (Homo sapiens, UniProt Q15077); experiment: UDP stimulation of human differentiated IEC, CXCL8 expression by qPCR; type: cell-based; settings: 100 μM for 5 hours, 1 patient (FIG. 13B)
T2 construct: endogenous in cells; host or cells: primary differentiated intestinal epithelial cells from human colon crypts (1 patient)
T2 sequence (Q15077 whole entry): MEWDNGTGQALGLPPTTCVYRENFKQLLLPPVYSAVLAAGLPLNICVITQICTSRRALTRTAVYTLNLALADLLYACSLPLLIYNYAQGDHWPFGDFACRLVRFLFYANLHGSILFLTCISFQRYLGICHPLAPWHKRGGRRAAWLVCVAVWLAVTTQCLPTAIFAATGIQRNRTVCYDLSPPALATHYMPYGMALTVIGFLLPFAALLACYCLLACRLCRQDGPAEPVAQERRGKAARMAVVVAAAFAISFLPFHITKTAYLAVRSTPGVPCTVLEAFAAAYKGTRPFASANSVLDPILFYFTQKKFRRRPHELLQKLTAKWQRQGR
Text: as §2, §3, §4

IEC monolayers = experiment: In vitro intestinal permeability assay (FITC-dextran) on DSS-treated IEC monolayers; type: cell-based, mouse; settings: WT and Entpd8-/- IEC, DSS 3% 24 hours; 10 μM added 6 hours after DSS for last 18 hours (FIG. 14A)
Text: as §2, with “Hepes.” for “Hepes. N-2 supplement, B-27 supplement and antibiotics. The digestion mixture was filtered with 70 μm filter and the effluent was centrifuged twice at 50×g for 5 min at 4° C.”
(§5) In other experiments, murine IEC were grown on permeable supports, stimulated on the apical chamber with DSS 3% for 6 hours then the P2Y6 antagonist MRS 2578 (10 μM) was added for the following 18 hours. The supernatant from basolateral chamber was collected and KC secretion was evaluated by Elisa.
Intestinal permeability was assessed with fluorescein-labeled dextran (FITC-dextran) as described previously with some modification (Ashleigh Hansen 2013). […] 4 hours later, samples were taken from the bottom chambers and fluorescence intensity in the samples was measured. Data were expressed as total quantity of dextran-FITC in supernatant.

IEC = experiment: KC secretion by DSS-treated IEC (ELISA of basolateral supernatant); type: cell-based, mouse; settings: WT and Entpd8-/- IEC, DSS 3% 24 hours; 10 μM added 6 hours after DSS for last 18 hours (FIG. 14B)
Text: as §2
as §5, with “Elisa. […]” for “Elisa.”

Compound: apyrase
Protection from colitis as determined by permeability measurements (DSS-induced colitis [1]; WT mice, 4 U/mice intrarectally daily day 2 to day 7, vs PBS (FIG. 11B)): fully protected
Protection from colitis as determined by DAI (DSS-induced colitis [2]; WT mice, DSS, 4 U/mice intrarectally daily day 2 to day 7, vs PBS (FIG. 11A)): fully protected
Disease activity index (DAI) / inflammation (DSS-induced colitis [2]; WT mice, DSS, 4 U/mice intrarectally in late phase, day 5 to day 7, vs PBS (FIG. 11C)): reduced inflammation

KC expression (mRNA) (P2Y6 receptor [3]): significant increase
CXCL8 expression (mRNA) (P2Y6 receptor [4]): significant increase
Compound: O=c1ccn([C@@H]2O[C@H](COP(=O)(O)OP(=O)(O)O)[C@@H](O)[C@H]2O)c(=O)[nH]1 [UDP]

Compound: S=C=Nc1cccc(NC(=S)NCCCCNC(=S)Nc2cccc(N=C=S)c2)c1 [MRS 2578]
Intestinal permeability, FITC-dextran flux from intestine to plasma (DSS-induced colitis [1]; Entpd8-/- and WT mice, day 7, 10 μM intrarectally day 2 to day 7 (FIG. 10B, D)): significantly ameliorated the permeability
Epithelial permeability (FITC-dextran in basolateral chamber) (IEC monolayers): decreasing epithelial permeability
KC (chemokine) secretion (IEC): decreasing epithelial permeability and chemokines secretion
Disease activity index (DAI) / inflammation (DSS-induced colitis [2]; Entpd8-/- mice, 3% DSS 7 days, 10 μM intrarectally daily day 2 to day 7, vs DSS alone (FIG. 10A)): reduced inflammation and the DAI
Disease activity index (DAI) / inflammation (DSS-induced colitis [2]; WT mice, 3% DSS 7 days, 10 μM intrarectally daily day 2 to day 7, vs DSS alone (FIG. 10C)): reduced inflammation and the DAI
